From publication PMC9572397, “Garcinia cambogia Phenolics as Potent Anti-COVID-19 Agents: Phytochemical Profiling, Biological Activities, and Molecular Docking” (Plants, 2022)

Biological target: SARS-CoV-2 3CL Protease (Severe acute respiratory syndrome coronavirus 2, UniProt P0DTD1)
Experiment: 3CL protease SARS-CoV-2 activity (M^Pro assay), fluorescence kit
Type: biochemical
Conditions: for Kinetic Activity: positive control 120; for ∆RFU: ∆T 30, positive control 100

SMILES | IC50 [µM] | Kinetic Activity (Conc. 0.1) | ∆RFU (Conc. 0.1) | Kinetic Activity (Conc. 1) | ∆RFU (Conc. 1) | Kinetic Activity (Conc. 10) | ∆RFU (Conc. 10) | Kinetic Activity (Conc. 100) | ∆RFU (Conc. 100) | reduction of the protease activity (in words) (final concentration of 50 μM, compared to the plumbagin positive standard)
O=c1cc(-c2ccc(O)c(-c3c(O)cc(O)c4c(=O)cc(-c5ccc(O)cc5)oc34)c2)oc2cc(O)cc(O)c12 [Compound 2, amentoflavone] | 136 | 117.505 | 97.92 | 112.981 | 94.15 | 94.7529 | 78.96 | 44.4244 | 37.02 | –
C[C@@H]1O[C@@H](OC[C@H]2O[C@@H](Oc3c(-c4ccc(O)c(O)c4)oc4cc(O)cc(O)c4c3=O)[C@H](O)[C@@H](O)[C@@H]2O)[C@H](O)[C@H](O)[C@H]1O [Compound 4, rutin] | – | 116.077 | 96.73 | 110.065 | 91.72 | 92.9049 | 77.42 | 32.3043 | 26.92 | –
O=c1cc(-c2ccc(O)cc2)oc2c([C@@H]3O[C@H](CO)[C@@H](O)[C@H](O)[C@H]3O)c(O)cc(O)c12 [Compound 3, vitexin] | 231 | 117.109 | 97.59 | 110.257 | 91.88 | 99.133 | 82.61 | 46.7405 | 38.95 | –
O=C(O)/C=C/c1ccc(O)cc1 [Compound 7, p-coumaric acid] | 471 | 118.477 | 98.73 | 113.905 | 94.92 | 100.333 | 83.61 | 42.0724 | 35.06 | –
Oc1cc(O)c2c(c1)O[C@H](c1ccc(O)c(O)c1)[C@@H](O)C2 [Compound 6, catechin] | 90.3 | 113.953 | 94.96 | 107.173 | 89.31 | 83.2328 | 69.36 | 33.3003 | 27.75 | –
O=C(O)c1cc(O)c(O)c(O)c1 [Compound 8, gallic acid] | 178 | 117.505 | 97.92 | 109.237 | 91.03 | 93.0969 | 77.58 | 29.8323 | 24.86 | –
CC1=CC(=O)c2c(O)cccc2C1=O [Plumbagin, reference compound] | 87.6 | 115.069 | 95.89 | 102.853 | 85.71 | 77.9528 | 64.96 | 27.0243 | 22.52 | –
C[C@@H]1O[C@@H](O[C@H]2[C@H](Oc3cc(O)c4c(c3)O[C@H](c3ccc(O)cc3)CC4=O)O[C@H](CO)[C@@H](O)[C@@H]2O)[C@H](O)[C@H](O)[C@H]1O [Compound 5, naringin] | 28.6 | 117.637 | 98.03 | 101.965 | 84.97 | 80.2328 | 66.86 | 25.8243 | 21.52 | significant reduction
